# Test results: paper PMC6345968, “Structural basis for species-selective targeting of Hsp90 in a pathogenic fungus” (Nature Communications, 2019)
# Like-named read-outs stand apart in the source and are kept apart here.
# How the values were obtained:
# [1] = tested on: C. albicans reporter strain CaLC922; assay type: cell-based, Candida albicans; conditions: 6-h exposure
# Protocol: In addition to effects on host immune function, we also examined activation of the evolutionarily conserved heat-shock response by CMLD013075.
# Activation of the response in C. albicans was also measured in 96-well format using a reporter strain (CaLC922) engineered with HSP70 promoter elements driving expression of the LacZ gene from Streptococcus thermophilus integrated at the HSP70 locus with the URA3 marker for selection. […]
# [2] = biological target: T1, Hsp90 in C. albicans (SC5314) lysate (Candida albicans, UniProt P46598); test: biochemical; assay type: binding; conditions: for FP signal: raw
# T1 construct: endogenous in cells; host or cells: C. albicans SC5314 whole-cell lysate
# [3] = tested on: S. cerevisiae expressing C. albicans Hsp90; test: Broth microdilution growth inhibition (MIC), yeast with C. albicans Hsp90 as sole Hsp90; assay type: cell-based, Saccharomyces cerevisiae
# From the text: A critical consideration in the development of an effective antifungal is not just target binding, but also access to the target across microbial cell membranes and cell walls. Therefore, we evaluated the potency and selectivity of oxime analogs using drug susceptibility assays. We used strains of S. cerevisiae where both endogenous genes encoding isoforms of Hsp90 have been disrupted and growth is solely dependent upon C. albicans or human Hsp90 isoforms.
# Antifungal tolerance and resistance were determined in flat bottom, 96-well microtiter plates using a modified broth microdilution protocol as described[8],[10]. All Hsp90 inhibitors were formulated in dimethyl sulfoxide (DMSO, Sigma Aldrich Co.); fluconazole was dissolved in sterile ddH2O. Each strain was tested in duplicate on at least two occasions. […] To test for fungicidal activity, cultures from MIC plates were spotted on YPD agar plates using a spotter (Frogger, V&P Scientific, Inc). Plates were photographed after 48 h of incubations at 30 °C.
# Hsp90 in HEPG2 lysate = conditions: for FP signal: raw
# [4] = SC5314 lysate, 1.372 nM compound
# [5] = SC5314 lysate, 4.115 nM compound
# [6] = SC5314 lysate, 12.346 nM compound
# [7] = SC5314 lysate, 37.037 nM compound
# [8] = SC5314 lysate, 111.111 nM compound
# [9] = SC5314 lysate, 333.333 nM compound
# [10] = SC5314 lysate, 1000 nM compound
# [11] = SC5314 lysate, 3000 nM compound
# T1 sequence (P46598 whole entry): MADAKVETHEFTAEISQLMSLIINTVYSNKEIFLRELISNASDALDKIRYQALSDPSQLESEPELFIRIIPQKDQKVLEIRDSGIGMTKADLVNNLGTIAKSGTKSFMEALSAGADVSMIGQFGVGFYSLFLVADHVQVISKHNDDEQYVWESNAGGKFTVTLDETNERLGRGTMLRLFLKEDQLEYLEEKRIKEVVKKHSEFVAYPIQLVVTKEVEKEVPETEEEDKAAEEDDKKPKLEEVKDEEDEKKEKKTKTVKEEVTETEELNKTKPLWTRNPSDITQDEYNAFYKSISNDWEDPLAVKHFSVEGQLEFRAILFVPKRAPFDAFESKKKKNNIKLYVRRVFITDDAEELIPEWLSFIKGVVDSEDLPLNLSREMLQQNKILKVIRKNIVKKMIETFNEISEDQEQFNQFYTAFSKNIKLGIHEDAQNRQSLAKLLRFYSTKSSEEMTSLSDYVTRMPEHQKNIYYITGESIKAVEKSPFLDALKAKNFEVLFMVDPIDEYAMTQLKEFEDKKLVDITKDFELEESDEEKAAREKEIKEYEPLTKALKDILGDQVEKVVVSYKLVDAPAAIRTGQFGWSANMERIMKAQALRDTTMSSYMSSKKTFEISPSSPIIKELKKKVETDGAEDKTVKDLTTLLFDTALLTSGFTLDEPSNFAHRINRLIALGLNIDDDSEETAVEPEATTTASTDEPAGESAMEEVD
compound,measurement,setting,value
"CC(C)c1cc(-c2n[nH]c(=O)n2-c2ccc3c(ccn3C)c2)c(O)cc1O [ganetespib, reference compound]",heat-shock reporter activation,[1],neither ganetespib nor radicicol induced the reporter to a measurable extent
same,heat-shock reporter activation,293T reporter cells,concentration-dependent reporter activation
C[C@@H]1C[C@@H]2O[C@@H]2/C=C\C=C\C(=NOCc2ccccc2Cl)Cc2c(Cl)c(O)cc(O)c2C(=O)O1 [compound 4],normalized fungal selectivity in lysates,"[2]; C. albicans SC5314 vs HEPG2 lysate, FP",2.9 fold
same,EC50,"[2]; EC50, SC5314 lysate, not normalized, oxime panel experiment 220817",531 nM
same,Ratio re. GdA,"[2]; EC50 relative to GdA, SC5314 lysate",31.1993
same,FP signal relative to 0 nM,"[2]; SC5314 lysate, 0.457 nM compound",0.9904
same,FP signal (raw),"[2]; SC5314 lysate, 1.372 nM",208
same,FP signal relative to 0 nM,[2]; [4],1
same,FP signal,[2]; [4],208
same,FP signal (raw),"[2]; SC5314 lysate, 4.115 nM",207
same,FP signal relative to 0 nM,[2]; [5],0.9952
same,FP signal,[2]; [5],207
same,FP signal (raw),"[2]; SC5314 lysate, 12.346 nM",202
same,FP signal relative to 0 nM,[2]; [6],0.9712
same,FP signal,[2]; [6],202
same,FP signal (raw),"[2]; SC5314 lysate, 37.037 nM",199
same,FP signal relative to 0 nM,[2]; [7],0.9567
same,FP signal,[2]; [7],199
same,FP signal (raw),"[2]; SC5314 lysate, 111.111 nM",186
same,FP signal relative to 0 nM,[2]; [8],0.8942
same,FP signal,[2]; [8],186
same,FP signal (raw),"[2]; SC5314 lysate, 333.333 nM",145
same,FP signal relative to 0 nM,[2]; [9],0.6971
same,FP signal,[2]; [9],145
same,FP signal (raw),"[2]; SC5314 lysate, 1000 nM",75
same,FP signal relative to 0 nM,[2]; [10],0.3606
same,FP signal,[2]; [10],75
same,FP signal (raw),"[2]; SC5314 lysate, 3000 nM",39
same,FP signal relative to 0 nM,[2]; [11],0.1875
same,FP signal,[2]; [11],39
same,HepG2/SC5314,"[2]; ratio of GdA-normalized EC50s, human over fungal lysate",2.89
same,HepG2/SC5314,"[2]; ratio of GdA-relative EC50 ratios, HepG2 over SC5314",2.89
same,MIC,[3],2.6 µM
same,Ratio rel. GdA (HepG2),Hsp90 in HEPG2 lysate; EC50 / EC50 of GdA in HepG2 lysate,90.1713
same,Ratio rel. GdA (HepG2),"Hsp90 in HEPG2 lysate; EC50 relative to GdA, HEPG2 lysate",90.1713
same,"FP signal, Fxn Control","Hsp90 in HEPG2 lysate; HEPG2 lysate, log concentration 0.137354 (1.372 nM)",1.0099
same,"FP signal, Fxn Control","Hsp90 in HEPG2 lysate; HEPG2 lysate, log concentration 0.61437 (4.115 nM)",1.0198
same,"FP signal, Fxn Control","Hsp90 in HEPG2 lysate; HEPG2 lysate, log concentration 1.09153 (12.346 nM)",1.0099
same,"FP signal, Fxn Control","Hsp90 in HEPG2 lysate; HEPG2 lysate, log concentration 1.56864 (37.037 nM)",1.0099
same,"FP signal, Fxn Control","Hsp90 in HEPG2 lysate; HEPG2 lysate, log concentration 2.04576 (111.111 nM)",0.9901
same,"FP signal, Fxn Control","Hsp90 in HEPG2 lysate; HEPG2 lysate, log concentration 2.52288 (333.333 nM)",0.9158
same,"FP signal, Fxn Control","Hsp90 in HEPG2 lysate; HEPG2 lysate, log concentration 3 (1000 nM)",0.6881
same,"FP signal, Fxn Control","Hsp90 in HEPG2 lysate; HEPG2 lysate, log concentration 3.47712 (3000 nM)",0.2178
same,"FP signal, Fxn Control","Hsp90 in HEPG2 lysate; HEPG2 lysate, log concentration -0.340084 (0.457 nM)",1.0099
same,FP signal (raw),"Hsp90 in HEPG2 lysate; HepG2 lysate, 0.457 nM",204
same,FP signal,"Hsp90 in HEPG2 lysate; HepG2 lysate, 0.457 nM compound",204
same,FP signal (raw),"Hsp90 in HEPG2 lysate; HepG2 lysate, 1.372 nM",204
same,FP signal,"Hsp90 in HEPG2 lysate; HepG2 lysate, 1.372 nM compound",204
same,FP signal (raw),"Hsp90 in HEPG2 lysate; HepG2 lysate, 4.115 nM",206
same,FP signal,"Hsp90 in HEPG2 lysate; HepG2 lysate, 4.115 nM compound",206
same,FP signal (raw),"Hsp90 in HEPG2 lysate; HepG2 lysate, 12.346 nM",204
same,FP signal,"Hsp90 in HEPG2 lysate; HepG2 lysate, 12.346 nM compound",204
same,FP signal (raw),"Hsp90 in HEPG2 lysate; HepG2 lysate, 37.037 nM",204
same,FP signal,"Hsp90 in HEPG2 lysate; HepG2 lysate, 37.037 nM compound",204
same,FP signal (raw),"Hsp90 in HEPG2 lysate; HepG2 lysate, 111.111 nM",200
same,FP signal,"Hsp90 in HEPG2 lysate; HepG2 lysate, 111.111 nM compound",200
same,FP signal (raw),"Hsp90 in HEPG2 lysate; HepG2 lysate, 333.333 nM",185
same,FP signal,"Hsp90 in HEPG2 lysate; HepG2 lysate, 333.333 nM compound",185
same,FP signal (raw),"Hsp90 in HEPG2 lysate; HepG2 lysate, 1000 nM",139
same,FP signal,"Hsp90 in HEPG2 lysate; HepG2 lysate, 1000 nM compound",139
same,FP signal (raw),"Hsp90 in HEPG2 lysate; HepG2 lysate, 3000 nM",44
same,FP signal,"Hsp90 in HEPG2 lysate; HepG2 lysate, 3000 nM compound",44
same,EC50,"Hsp90 in HEPG2 lysate; HepG2 lysate, oxime panel experiment 220817",2000 nM
